Experimental data published in US20240209028A1, “CNP COMPOUNDS” (priority 2022, published 2024).
Converted amounts (≈) assume the structure as drawn. Starred links: 1 amine or outer side, 2 acyl side, 3 side chain; linkers in the order of their positions; H or OH if unused. Positions of bridges follow the written chain, without caps; N, C: chain ends. Residues, ends and D or L forms follow the SMILES beside them. *: point of attachment. C18 diacid = O=C(O)CCCCCCCCCCCCCCCCC(=O)*; γGlu = O=C(O)[C@H](CCC(=O)[*:2])N[*:1]; AEEA = NCCOCCOCC(=O)O

Key:
[1] = Solubility of CNP compounds at pH 4.0 and pH 6.5; assay type: physicochemical; conditions: 8 mM sodium phosphate, 23 mg/mL glycerol, pH 6.5, room temperature; read-out: Solubility at pH 6.5
Procedure: In order to assess the suitability of CNP compounds for a soluble liquid formulation, the solubility of CNP compounds in pharmaceutically relevant buffers were measured. Solubility at two different pH-levels (pH 4.0 and pH 6.5) was examined as pH is expected to affect solubility.
Preparation of pH 4.0 samples: The pH 4.0 samples of the CNP compounds were prepared by mixing freeze dried peptide with a pH 4.0 5 mM sodium acetate, 250 mM glycerol buffer at room temperature to a nominal concentration of at least 4000-5000 nmol/mL. The pH of the samples was measured and adjusted to pH 4.0 and the samples were allowed to equilibrate at room temperature until next day if not fully dissolved.
Preparation of pH 6.5 samples: The pH 6.5 samples of the CNP compounds were prepared by dissolving the freeze dried peptide in water. While stirring, a part of the peptide solution was transferred to a buffer consisting of 41 mM sodium phosphate and 118 mg/mL glycerol, pH 7.5-8.0, followed by addition of diluted sodium hydroxide followed by another part of the peptide solution and further addition of diluted sodium hydroxide. This procedure was repeated until all of the peptide solution had been added where a nominal concentration of at least 4000-5000 nmol/mL had been reached and the buffer composition was 8 mM sodium phosphate, 23 mg/mL glycerol. The pH of the samples were measured and adjusted to pH 6.5 and the samples were allowed to equilibrate at room temperature until next day if not fully dissolved.
Procedure: Samples at pH 4.0 were prepared as described above and the compound concentration in the supernatant was determined using CAD (Method F, CAD02).
Samples at pH 6.5 were prepared as described above and peptide concentration in the supernatant was determined by CAD (Method F, CAD02).

[2] = molecular target: T1, human natriuretic peptide receptor 2 (hNPR2) (Homo sapiens, UniProt P20594); experiment: In vitro hNPR2 activity assay (cGMP GloSensor reporter, HEK293); assay type: cell-based; conditions: potency relative to CNP22 (0065)
T1 construct: expressed in transfected cells; host or cells: HEK293 (ATCC CRL-1573), clone 35, co-transfected with pGloSensor-42F
T1 sequence (P20594 23-1047): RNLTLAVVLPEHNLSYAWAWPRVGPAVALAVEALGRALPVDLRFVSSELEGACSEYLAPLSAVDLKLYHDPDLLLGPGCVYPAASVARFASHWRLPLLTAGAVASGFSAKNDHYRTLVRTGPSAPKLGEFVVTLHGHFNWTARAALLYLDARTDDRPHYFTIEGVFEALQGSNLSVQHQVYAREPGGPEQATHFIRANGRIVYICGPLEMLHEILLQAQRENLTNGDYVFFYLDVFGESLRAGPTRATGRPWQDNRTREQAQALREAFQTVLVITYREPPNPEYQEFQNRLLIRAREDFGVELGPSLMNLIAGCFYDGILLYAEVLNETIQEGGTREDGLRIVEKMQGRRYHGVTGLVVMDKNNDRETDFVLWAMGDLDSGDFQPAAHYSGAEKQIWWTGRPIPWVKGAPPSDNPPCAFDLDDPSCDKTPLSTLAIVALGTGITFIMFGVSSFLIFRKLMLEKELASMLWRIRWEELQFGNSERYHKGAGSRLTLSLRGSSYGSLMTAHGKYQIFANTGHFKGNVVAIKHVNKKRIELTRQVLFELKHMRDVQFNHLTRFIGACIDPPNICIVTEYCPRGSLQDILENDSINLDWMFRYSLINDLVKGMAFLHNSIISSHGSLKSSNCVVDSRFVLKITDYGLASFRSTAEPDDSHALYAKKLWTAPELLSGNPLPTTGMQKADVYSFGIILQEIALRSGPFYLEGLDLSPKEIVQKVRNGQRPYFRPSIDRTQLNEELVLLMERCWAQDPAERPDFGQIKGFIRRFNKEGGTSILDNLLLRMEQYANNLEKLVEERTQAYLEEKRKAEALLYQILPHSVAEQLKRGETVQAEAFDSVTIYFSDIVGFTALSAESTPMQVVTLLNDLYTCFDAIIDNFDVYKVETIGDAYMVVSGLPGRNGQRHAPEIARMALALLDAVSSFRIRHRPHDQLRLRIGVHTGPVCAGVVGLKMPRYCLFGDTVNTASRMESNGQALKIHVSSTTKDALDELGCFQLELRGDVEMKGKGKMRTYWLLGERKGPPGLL
How it was run: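 Potency is the EC50 from a four-parameter logistic fit, also expressed relative to the in-plate CNP22 control (×100), with at least two replicates. Compounds (ten concentrations, […], HSA-free diluent with 1% OVA, 0.01% Tween20) were incubated 30 min at 37 °C on HEK293 cells co-expressing hNPR2 and a GloSensor cGMP luciferase. Luminescence detected with Bright-Glo.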

Row | Structure (SMILES) | solubility [1] [mM] | hNPR2 0% HSA. [EC50% rel CNP] [2] [%]
1 | CC[C@H](C)[C@@H]1NC(=O)[C@H](CCCNC(=N)N)NC(=O)[C@H](CC(=O)O)NC(=O)[C@H](CC(C)C)NC(=O)[C@@H]2CCCN2C(=O)[C@H](CC(C)C)NC(=O)CNC(=O)[C@H](Cc2ccccc2)NC(=O)[C@@H](NC(=O)CNC(=O)[C@H](CO)NC(=O)[C@H](CO)NC(=O)[C@@H](NC(=O)CNC(=O)[C@@H](NC(=O)[C@H](CCCCN)NC(=O)[C@H](CCC(N)=O)NC(=O)[C@H](C)NC(=O)CNC(=O)[C@H](Cc2c[nH]cn2)NC(=O)[C@H](Cc2ccc(O)cc2)NC(=O)COCCOCCNC(=O)COCCOCCNC(=O)CC[C@H](NC(=O)CCCCCCCCCCCCCCCCC(=O)O)C(=O)O)[C@@H](C)O)C(C)C)CSSC[C@@H](C(=O)O)NC(=O)CNC(=O)[C@H](CC(C)C)NC(=O)CNC(=O)[C@H](CO)NC(=O)[C@H](CC(C)C)NC(=O)[C@H](CO)NC(=O)CNC1=O [compound 1303] ({C18 diacid-γGlu-AEEA-AEEA}-YHGAQKTGVSSGCFGLPLDRIGSLSGLGC-OH; disulfide 13-29) | 4.84 (≈ 17.4 mg/mL) | 25.5
2 | CC[C@H](C)[C@@H]1NC(=O)[C@H](CCCNC(=N)N)NC(=O)[C@H](CC(=O)O)NC(=O)[C@H](CC(C)C)NC(=O)[C@@H]2CCCN2C(=O)[C@H](CC(C)C)NC(=O)CNC(=O)[C@H](Cc2ccccc2)NC(=O)[C@@H](NC(=O)CNC(=O)[C@H](CO)NC(=O)[C@H](CO)NC(=O)[C@H](CC(C)C)NC(=O)CNC(=O)[C@@H](NC(=O)[C@H](Cc2c[nH]cn2)NC(=O)[C@H](CCC(N)=O)NC(=O)[C@H](C)NC(=O)CNC(=O)[C@H](Cc2c[nH]cn2)NC(=O)[C@H](Cc2ccc(O)cc2)NC(=O)COCCOCCNC(=O)COCCOCCNC(=O)CC[C@H](NC(=O)CCCCCCCCCCCCCCCCC(=O)O)C(=O)O)[C@@H](C)O)CSSC[C@@H](C(=O)O)NC(=O)CNC(=O)[C@H](CC(C)C)NC(=O)CNC(=O)[C@H](CO)NC(=O)[C@H](CC(C)C)NC(=O)[C@H](CO)NC(=O)CNC1=O [compound 1304] ({C18 diacid-γGlu-AEEA-AEEA}-YHGAQHTGLSSGCFGLPLDRIGSLSGLGC-OH; disulfide 13-29) | 6.66 (≈ 24.1 mg/mL) | 20.7
3 | CC[C@H](C)[C@@H]1NC(=O)[C@H](CCCNC(=N)N)NC(=O)[C@H](CC(=O)O)NC(=O)[C@H](CC(C)C)NC(=O)[C@@H]2CCCN2C(=O)[C@H](CC(C)C)NC(=O)CNC(=O)[C@H](Cc2ccccc2)NC(=O)[C@@H](NC(=O)CNC(=O)[C@H](CO)NC(=O)[C@H](CO)NC(=O)[C@H](CC(C)C)NC(=O)CNC(=O)[C@H](CCCCN)NC(=O)[C@H](CCCCN)NC(=O)[C@H](CCC(N)=O)NC(=O)[C@H](C)NC(=O)CNC(=O)[C@H](Cc2c[nH]cn2)NC(=O)[C@H](CCC(=O)O)NC(=O)COCCOCCNC(=O)COCCOCCNC(=O)CC[C@H](NC(=O)CCCCCCCCCCCCCCCCC(=O)O)C(=O)O)CSSC[C@@H](C(=O)O)NC(=O)CNC(=O)[C@H](CC(C)C)NC(=O)CNC(=O)[C@H](CO)NC(=O)[C@H](CC(C)C)NC(=O)[C@H](CO)NC(=O)CNC1=O [compound 1310] ({C18 diacid-γGlu-AEEA-AEEA}-EHGAQKKGLSSGCFGLPLDRIGSLSGLGC-OH; disulfide 13-29) | 7.61 (≈ 27.4 mg/mL) | 10.4
